From patent US7994209B2, “3-phenoxymethylpyrrolidine compounds” (Theravance, Inc., priority 2009, dated 2011)

Each compound was assayed against hNET (Homo sapiens, UniProt P23975) (assay: fluorescence-based norepinephrine reuptake inhibition assay (Tsuruda et al. 2010; data indicated by an asterisk)). Conditions: norepinephrine reuptake inhibition, fluorescence-based assay (values with asterisk); read-out: NET pIC50 (converted).
Type: cell-based
Set-up: expressed in transfected cells; host or cells: HEK-293

hNET, sequence (P23975 whole entry): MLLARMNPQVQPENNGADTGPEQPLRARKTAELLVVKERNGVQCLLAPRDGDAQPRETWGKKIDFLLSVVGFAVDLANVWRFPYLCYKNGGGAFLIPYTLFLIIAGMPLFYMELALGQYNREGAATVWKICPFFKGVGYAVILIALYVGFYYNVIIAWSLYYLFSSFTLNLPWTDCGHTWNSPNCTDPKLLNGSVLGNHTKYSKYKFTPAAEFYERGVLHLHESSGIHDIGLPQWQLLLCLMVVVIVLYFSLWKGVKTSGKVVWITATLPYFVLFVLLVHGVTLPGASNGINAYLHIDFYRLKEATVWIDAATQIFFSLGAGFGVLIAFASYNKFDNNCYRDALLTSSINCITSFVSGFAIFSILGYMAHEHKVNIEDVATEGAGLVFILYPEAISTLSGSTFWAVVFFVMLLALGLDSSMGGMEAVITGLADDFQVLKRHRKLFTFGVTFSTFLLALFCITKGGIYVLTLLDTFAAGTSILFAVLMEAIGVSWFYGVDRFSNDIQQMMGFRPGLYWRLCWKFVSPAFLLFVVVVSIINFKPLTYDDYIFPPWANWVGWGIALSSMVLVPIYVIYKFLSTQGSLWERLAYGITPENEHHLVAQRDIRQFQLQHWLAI

| SMILES | IC50 [nM] |
| --- | --- |
| CC(C)[C@H](Oc1cccc(F)c1Cl)[C@@H]1CCNC1 [Example 6-20, (R)-3-[(S)-1-(2-Chloro-3-fluorophenoxy)-2-methylpropyl]pyrrolidine] | ≤ 100 |
| CC(C)[C@@H](Oc1ccc(Cl)cc1Cl)[C@@H]1CCNC1 [Example 6-23, (R)-3-[(R)-1-(2,4-Dichlorophenoxy)-2-methylpropyl]pyrrolidine] | ≤ 100 |
| CC(C)[C@H](Oc1ccc(C(F)(F)F)cc1Cl)[C@H]1CCNC1 [Example 6-25, (S)-3-[(S)-1-(2-Chloro-4-trifluoromethylphenoxy)-2-methylpropyl]pyrrolidine] | ≤ 100 |
| CC(C)[C@@H](Oc1cc(Cl)ccc1Cl)[C@H]1CCNC1 [Example 6-26, (S)-3-[(R)-1-(2,5-Dichlorophenoxy)-2-methylpropyl]pyrrolidine] | ≤ 100 |
| CC(C)[C@@H](Oc1c(F)cc(Cl)cc1Cl)[C@H]1CCNC1 [Example 6-31, (S)-3-[(R)-1-(2,4-Dichloro-6-fluorophenoxy)-2-methylpropyl]pyrrolidine] | ≤ 100 |
| CC(C)[C@H](Oc1c(F)cc(Cl)cc1Cl)[C@@H]1CCNC1 [Example 6-32, (R)-3-[(S)-1-(2,4-Dichloro-6-fluorophenoxy)-2-methylpropyl]pyrrolidine] | ≤ 316 |
| Cc1cc(Cl)cc(Cl)c1O[C@@H](C(C)C)[C@H]1CCNC1 [Example 6-33, (S)-3-[(S)-1-(2,4-Dichloro-6-methylphenoxy)-2-methylpropyl]pyrrolidine] | ≤ 10 |
| COc1ccc(F)c(O[C@H](C(C)C)[C@@H]2CCNC2)c1Cl [Example 6-37, (R)-3-[(R)-1-(2-Chloro-6-fluoro-3-methoxyphenoxy)-2-methylpropyl]pyrrolidine] | ≤ 10 |
| Cc1c(Cl)cccc1O[C@H](C(C)C)[C@@H]1CCNC1 [Example 6-41, (R)-3-[(R)-1-(3-Chloro-2-methylphenoxy)-2-methylpropyl]pyrrolidine] | ≤ 100 |
| Cc1c(Cl)cccc1O[C@@H](C(C)C)[C@@H]1CCNC1 [Example 6-42, (R)-3-[(S)-1-(3-Chloro-2-methylphenoxy)-2-methylpropyl]pyrrolidine] | ≤ 100 |
| Cc1cc(Cl)ccc1O[C@H](C(C)C)[C@@H]1CCNC1 [Example 6-46, (R)-3-[(R)-1-(4-Chloro-2-methylphenoxy)-2-methylpropyl]pyrrolidine] | ≤ 100 |
| COc1cc(Cl)ccc1O[C@H](C(C)C)[C@@H]1CCNC1 [Example 6-48, (R)-3-[(R)-1-(4-Chloro-2-methoxyphenoxy)-2-methylpropyl]pyrrolidine] | ≤ 100 |
| CC(C)[C@@H](Oc1ccc(Cl)c(F)c1)[C@H]1CCNC1 [Example 6-57, (S)-3-[(R)-1-(4-Chloro-3-fluorophenoxy)-2-methylpropyl]pyrrolidine] | ≤ 100 |
| CC(C)[C@@H](Oc1ccc(Cl)c(F)c1)[C@@H]1CCNC1 [Example 6-58, (R)-3-[(R)-1-(4-Chloro-3-fluorophenoxy)-2-methylpropyl]pyrrolidine] | ≤ 100 |

Other lines, results leading:

| IC50 [nM] | SMILES |
| --- | --- |
| ≤ 10 | CC(C)[C@H](Oc1cc(F)cc(Cl)c1)[C@H]1CCNC1 [Example 6-59, (S)-3-[(S)-1-(3-Chloro-5-fluorophenoxy)-2-methylpropyl]pyrrolidine] |
| ≤ 10 | CC(C)[C@@H](Oc1cc(F)cc(Cl)c1)[C@H]1CCNC1 [Example 6-60, (S)-3-[(R)-1-(3-Chloro-5-fluorophenoxy)-2-methylpropyl]pyrrolidine] |
| ≤ 100 | CC(C)[C@@H](Oc1cc(F)cc(Cl)c1)[C@@H]1CCNC1 [Example 6-61, (R)-3-[(R)-1-(3-Chloro-5-fluorophenoxy)-2-methylpropyl]pyrrolidine] |
| ≤ 100 | CC(C)[C@@H](Oc1ccc(Cl)c(Cl)c1)[C@H]1CCNC1 [Example 6-63, (S)-3-[(R)-1-(3,4-Dichlorophenoxy)-2-methylpropyl]pyrrolidine] |
| ≤ 100 | CC(C)[C@@H](Oc1ccc(Cl)c(Cl)c1)[C@@H]1CCNC1 [Example 6-64, (R)-3-[(R)-1-(3,4-Dichlorophenoxy)-2-methylpropyl]pyrrolidine] |
| ≤ 100 | CC(C)[C@H](Oc1ccc(Cl)c(Cl)c1)[C@@H]1CCNC1 [Example 6-65, (R)-3-[(S)-1-(3,4-Dichlorophenoxy)-2-methylpropyl]pyrrolidine] |
| ≤ 100 | CC(C)[C@H](Oc1cc(Cl)cc(Cl)c1)[C@@H]1CCNC1 [Example 6-69, (R)-3-[(S)-1-(3,5-Dichlorophenoxy)-2-methylpropyl]pyrrolidine] |

These compounds were tested against hSERT (Homo sapiens, UniProt P31645) (assay: fluorescence-based serotonin reuptake inhibition assay (Tsuruda et al. 2010; data indicated by an asterisk)). Conditions: fluorescence-based assay (values with asterisk), read-out: SERT pIC50 (converted).
Type: cell-based
Set-up: expressed in transfected cells; host or cells: HEK-293

hSERT, sequence (P31645 whole entry): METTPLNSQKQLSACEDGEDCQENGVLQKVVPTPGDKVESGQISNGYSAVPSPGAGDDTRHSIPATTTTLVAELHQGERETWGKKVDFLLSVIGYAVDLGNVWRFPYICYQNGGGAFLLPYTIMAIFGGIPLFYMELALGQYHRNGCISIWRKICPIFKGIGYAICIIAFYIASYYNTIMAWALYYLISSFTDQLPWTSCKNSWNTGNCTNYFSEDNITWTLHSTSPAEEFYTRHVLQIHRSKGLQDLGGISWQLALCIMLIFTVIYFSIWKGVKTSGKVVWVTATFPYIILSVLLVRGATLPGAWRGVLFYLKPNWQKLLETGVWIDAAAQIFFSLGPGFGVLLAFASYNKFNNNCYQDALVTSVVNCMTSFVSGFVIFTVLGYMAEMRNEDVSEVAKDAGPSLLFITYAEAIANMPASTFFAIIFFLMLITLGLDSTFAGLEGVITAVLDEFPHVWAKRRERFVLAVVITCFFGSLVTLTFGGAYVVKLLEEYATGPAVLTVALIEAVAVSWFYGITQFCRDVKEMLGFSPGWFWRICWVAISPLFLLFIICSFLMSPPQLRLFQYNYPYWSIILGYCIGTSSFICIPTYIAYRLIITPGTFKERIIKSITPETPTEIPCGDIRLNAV

| SMILES | IC50 [nM] |
| --- | --- |
| CC(C)[C@H](Oc1cccc(F)c1Cl)[C@@H]1CCNC1 [Example 6-20, (R)-3-[(S)-1-(2-Chloro-3-fluorophenoxy)-2-methylpropyl]pyrrolidine] | ≤ 100 |
| CC(C)[C@@H](Oc1ccc(Cl)cc1Cl)[C@@H]1CCNC1 [Example 6-23, (R)-3-[(R)-1-(2,4-Dichlorophenoxy)-2-methylpropyl]pyrrolidine] | ≤ 10 |
| CC(C)[C@H](Oc1ccc(C(F)(F)F)cc1Cl)[C@H]1CCNC1 [Example 6-25, (S)-3-[(S)-1-(2-Chloro-4-trifluoromethylphenoxy)-2-methylpropyl]pyrrolidine] | ≤ 10 |
| CC(C)[C@@H](Oc1cc(Cl)ccc1Cl)[C@H]1CCNC1 [Example 6-26, (S)-3-[(R)-1-(2,5-Dichlorophenoxy)-2-methylpropyl]pyrrolidine] | ≤ 100 |
| CC(C)[C@@H](Oc1c(F)cc(Cl)cc1Cl)[C@H]1CCNC1 [Example 6-31, (S)-3-[(R)-1-(2,4-Dichloro-6-fluorophenoxy)-2-methylpropyl]pyrrolidine] | ≤ 10 |
| CC(C)[C@H](Oc1c(F)cc(Cl)cc1Cl)[C@@H]1CCNC1 [Example 6-32, (R)-3-[(S)-1-(2,4-Dichloro-6-fluorophenoxy)-2-methylpropyl]pyrrolidine] | ≤ 100 |
| Cc1cc(Cl)cc(Cl)c1O[C@@H](C(C)C)[C@H]1CCNC1 [Example 6-33, (S)-3-[(S)-1-(2,4-Dichloro-6-methylphenoxy)-2-methylpropyl]pyrrolidine] | ≤ 10 |
| COc1ccc(F)c(O[C@H](C(C)C)[C@@H]2CCNC2)c1Cl [Example 6-37, (R)-3-[(R)-1-(2-Chloro-6-fluoro-3-methoxyphenoxy)-2-methylpropyl]pyrrolidine] | ≤ 10 |
| Cc1c(Cl)cccc1O[C@H](C(C)C)[C@@H]1CCNC1 [Example 6-41, (R)-3-[(R)-1-(3-Chloro-2-methylphenoxy)-2-methylpropyl]pyrrolidine] | ≤ 10 |
| Cc1c(Cl)cccc1O[C@@H](C(C)C)[C@@H]1CCNC1 [Example 6-42, (R)-3-[(S)-1-(3-Chloro-2-methylphenoxy)-2-methylpropyl]pyrrolidine] | ≤ 10 |
| Cc1cc(Cl)ccc1O[C@H](C(C)C)[C@@H]1CCNC1 [Example 6-46, (R)-3-[(R)-1-(4-Chloro-2-methylphenoxy)-2-methylpropyl]pyrrolidine] | ≤ 100 |
| COc1cc(Cl)ccc1O[C@H](C(C)C)[C@@H]1CCNC1 [Example 6-48, (R)-3-[(R)-1-(4-Chloro-2-methoxyphenoxy)-2-methylpropyl]pyrrolidine] | ≤ 10 |
| CC(C)[C@@H](Oc1ccc(Cl)c(F)c1)[C@H]1CCNC1 [Example 6-57, (S)-3-[(R)-1-(4-Chloro-3-fluorophenoxy)-2-methylpropyl]pyrrolidine] | ≤ 10 |
| CC(C)[C@@H](Oc1ccc(Cl)c(F)c1)[C@@H]1CCNC1 [Example 6-58, (R)-3-[(R)-1-(4-Chloro-3-fluorophenoxy)-2-methylpropyl]pyrrolidine] | ≤ 10 |

Other lines, results leading:

| IC50 [nM] | SMILES |
| --- | --- |
| ≤ 100 | CC(C)[C@H](Oc1cc(F)cc(Cl)c1)[C@H]1CCNC1 [Example 6-59, (S)-3-[(S)-1-(3-Chloro-5-fluorophenoxy)-2-methylpropyl]pyrrolidine] |
| ≤ 10 | CC(C)[C@@H](Oc1cc(F)cc(Cl)c1)[C@H]1CCNC1 [Example 6-60, (S)-3-[(R)-1-(3-Chloro-5-fluorophenoxy)-2-methylpropyl]pyrrolidine] |
| ≤ 100 | CC(C)[C@@H](Oc1cc(F)cc(Cl)c1)[C@@H]1CCNC1 [Example 6-61, (R)-3-[(R)-1-(3-Chloro-5-fluorophenoxy)-2-methylpropyl]pyrrolidine] |
| ≤ 10 | CC(C)[C@@H](Oc1ccc(Cl)c(Cl)c1)[C@H]1CCNC1 [Example 6-63, (S)-3-[(R)-1-(3,4-Dichlorophenoxy)-2-methylpropyl]pyrrolidine] |
| ≤ 10 | CC(C)[C@@H](Oc1ccc(Cl)c(Cl)c1)[C@@H]1CCNC1 [Example 6-64, (R)-3-[(R)-1-(3,4-Dichlorophenoxy)-2-methylpropyl]pyrrolidine] |
| ≤ 10 | CC(C)[C@H](Oc1ccc(Cl)c(Cl)c1)[C@@H]1CCNC1 [Example 6-65, (R)-3-[(S)-1-(3,4-Dichlorophenoxy)-2-methylpropyl]pyrrolidine] |
| ≤ 100 | CC(C)[C@H](Oc1cc(Cl)cc(Cl)c1)[C@@H]1CCNC1 [Example 6-69, (R)-3-[(S)-1-(3,5-Dichlorophenoxy)-2-methylpropyl]pyrrolidine] |
